Here are results for eight compounds from patent US6207683A, “Benzocycloheptathiophene compounds” (Bridge Pharma, Inc., priority 1999, dated 2001).

The term IC50 denotes the concentration at which inhibition is half-maximal.

Counter-ions that a name gives are not always drawn. Like-named read-outs stand apart in the source and are kept apart here.

The target of series [1] is T1, histamine H1 -receptors (membranes from bovine cerebellum) (Bos taurus, UniProt P30546).
T1 construct: membranes from bovine cerebellum; from tissue; host or cells: bovine cerebellum membranes
T1 sequence (P30546 whole entry): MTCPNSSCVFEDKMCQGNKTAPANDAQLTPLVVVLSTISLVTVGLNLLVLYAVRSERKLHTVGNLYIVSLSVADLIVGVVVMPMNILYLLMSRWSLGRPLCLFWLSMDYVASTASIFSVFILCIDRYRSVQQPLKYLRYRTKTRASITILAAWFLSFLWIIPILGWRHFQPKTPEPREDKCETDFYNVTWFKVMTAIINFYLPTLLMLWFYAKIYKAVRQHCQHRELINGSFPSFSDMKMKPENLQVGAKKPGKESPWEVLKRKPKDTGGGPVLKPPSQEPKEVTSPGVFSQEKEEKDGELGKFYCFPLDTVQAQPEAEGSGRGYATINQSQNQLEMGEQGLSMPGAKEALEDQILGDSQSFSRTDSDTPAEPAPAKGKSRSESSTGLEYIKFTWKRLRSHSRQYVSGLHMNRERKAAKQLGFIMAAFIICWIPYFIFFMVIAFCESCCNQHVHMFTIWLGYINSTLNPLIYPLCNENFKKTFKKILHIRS
As to the kind of experiment: [^3 H]pyrilamine binding assay, histamine H1-receptors. Here is the method: 1. Binding to histaminergic receptors
The affinities of the test compounds for histamine H1 -receptors were assessed using the [^3 H]pyrilamine binding assay, modified after Chang et al. Heterogeneity of Histamine H1 -Receptors. J. Neurochem. 1979, 32: 1653-1663 Briefly, membranes from bovine cerebellum were incubated with [^3 H]pyrilamine and the test compound at increasing concentrations. The specific binding of the radioactive ligand to the receptor was defined as the difference between total binding and nonspecific binding, determined in the presence of an excess of unlabelled ligand. IC50 values (concentration required to inhibit 50% of specific binding of [^3 H]pyrilamine) were determined by non linear regression analysis of the competition curves.

Series [2] concerns physostigmine-induced lethality. As to the kind of experiment: Physostigmine-induced lethality test (sedative effects). The format is in vivo. The note with it: survivors of 10 mice 30 min after physostigmine 1.9 mg/kg s.c.; oral treatment 60 min before, mg/kg: Ketotifen 107, Nor-ketotifen 83, Example 2 94, Example 5 108, Astemizole 115. On the procedure:
3. Studies on sedative effects
The physostigmine-induced lethality test used in these tests is a modification of the sedation test technique reported by COLLIER et al., in Br. J. Pharmac., 1968, 32: 295-310. In short, physostigmine (1.9 mg/kg s.c.) produces 100% lethality when given to grouped mice with 10 animals in each plastic cage (approx. 11×26×13 cm). Mice administered a sedating antihistamine prior to physostigmine are protected and survive. In the present study, test compounds were administered orally 60 minutes prior to physostigmine. The number of survivors were counted 30 minutes after physostigmine administration. The doses in the CNS test were half of the molecular weights of the test compounds, expressed in mg/kg body weight.

Series [3] has as its target T2, muscarinic M1 -receptors (bovine striatal membranes) (Bos taurus, UniProt F1N5C5).
T2 sequence (F1N5C5 1-460): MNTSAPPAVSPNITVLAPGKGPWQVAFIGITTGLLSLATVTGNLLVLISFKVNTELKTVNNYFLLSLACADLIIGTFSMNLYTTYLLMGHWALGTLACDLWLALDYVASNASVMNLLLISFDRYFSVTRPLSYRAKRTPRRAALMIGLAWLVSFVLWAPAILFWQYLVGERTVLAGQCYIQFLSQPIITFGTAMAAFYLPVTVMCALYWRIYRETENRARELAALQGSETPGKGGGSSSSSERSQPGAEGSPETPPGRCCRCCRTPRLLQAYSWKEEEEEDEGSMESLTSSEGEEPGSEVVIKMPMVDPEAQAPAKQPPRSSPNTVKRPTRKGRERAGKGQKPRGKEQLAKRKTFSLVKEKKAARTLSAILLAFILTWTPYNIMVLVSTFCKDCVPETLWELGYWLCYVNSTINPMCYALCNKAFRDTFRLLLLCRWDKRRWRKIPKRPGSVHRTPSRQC
As to the kind of experiment: biochemical. In kind it is binding. On the procedure: 2. Binding to muscarinic receptors
The affinities of the test compounds for muscarinic M1 -receptors were assessed using the [^3 H]pirenzepine binding assay, modified after Luthin et al. [^3 H]Pirenzepine and [^3 H]QNB binding to brain muscarinic cholinergic receptors. Molec. Pharmac. 1984, 26: 164-169. Briefly, the experiments were carried out on bovine striatal membranes expressing muscarinic M1 -receptors. After incubation with the test article and the proper radioligand and washing, bound radioactivity is determined with a […], using a commercial scintillation cocktail. The specific radioligand binding to each receptor is defined as the difference between total binding and nonspecific binding determined in the presence of an excess of unlabelled ligand. IC50 values (concentrations required to inhibit 50% of specific binding) were determined by non linear regression analysis of the competition curves.

A short description of series [4]: Sedative activity (general statement). The format is in vivo. The note with it: statement in words.
The mark [5] stands for this setting: inhibition of 50% of specific binding of [^3 H]pyrilamine, bovine cerebellum membranes, read-out: IC50.
The mark [6] stands for this setting: inhibition of 50% of specific [^3 H]pirenzepine binding, bovine striatal membranes, read-out: IC50.

On to `Cc1ccc(/C(=C\CN2CCCC2)c2ccccn2)cc1` [TRIPROLIDINE HCl], for which the 50% inhibitory concentration (IC50) in series [1] (setting [5]) came to 0.0141 µM. As to `O=C1Cc2ccccc2C(=C2CCNCC2)c2ccsc21` [Norketotifen, 4-(4-piperidylidene)-9,10-dihydro-4 H-benzo[4,5]cyclo-hepta[1,2-] thiophene-10-one], the half-inhibitory concentration (IC50) in series [1] is 0.0436 µM; in series [3] (setting [6]) it was 0.261 µM. Besides, in series [2], the Survived is 3/10. As to `OC1Cc2ccccc2C(=C2CCNCC2)c2ccsc21` (stereo not drawn) [10-OH-NORKETOTIFEN, 10-OH-norketotifen], in series [1] (setting [5]), the IC50 is 0.113 µM. As to `CN1[C@@H]2CC[C@H]1C[C@@H](OC(=O)C(CO)c1ccccc1)C2` (stereo partly drawn) [ATROPINE Sulfate], half-maximal inhibition in series [3] (IC50) was put at 0.000574 µM.

For the compound `COc1ccc(CCN2CCC(Nc3nc4ccccc4n3Cc3ccc(F)cc3)CC2)cc1` [Astemizole], the Survived in series [2] is 1/10. As to `O=C1Cc2ccccc2C(=C2CCN(CCO)CC2)c2ccsc21` [Example 2], the 50% inhibitory concentration (IC50) in series [1] (setting [5]) was 0.00585 µM; in series [3] (setting [6]) it was 0.235 µM. Besides, the Survived in series [2] is given as 3/10. As for `CN1CCC(=C2c3ccccc3CC(=O)c3sccc32)CC1` [Ketotifen, ketotifen], in series [4], the “sedative activity / sedative side effects” value is given as “profound sedative side effects”. For the same compound, the Survived in series [2] is given as 9/10. As to `O=C(O)COCCN1CCC(=C2c3ccccc3CC(=O)c3sccc32)CC1` [Example 5], the concentration for half-maximal inhibition (IC50) came to 0.0695 µM in series [1] (setting [5]) and 0.88 µM in series [3] (setting [6]). For the same compound, the Survived in series [2] is recorded as 0/10.
